Values quoted from earlier work as cited in patent publication US6555519B2, “O-glucosylated benzamide SGLT2 inhibitors and method” (Bristol-Myers Squibb Company, priority 2000, dated 2003).

How the values were obtained:
human SGLT1 = biological target: T1, human SGLT1 (Homo sapiens, UniProt P13866); conditions: SGLT1 transporter; read-out: Km values for uptake
T1 sequence (P13866 1-664): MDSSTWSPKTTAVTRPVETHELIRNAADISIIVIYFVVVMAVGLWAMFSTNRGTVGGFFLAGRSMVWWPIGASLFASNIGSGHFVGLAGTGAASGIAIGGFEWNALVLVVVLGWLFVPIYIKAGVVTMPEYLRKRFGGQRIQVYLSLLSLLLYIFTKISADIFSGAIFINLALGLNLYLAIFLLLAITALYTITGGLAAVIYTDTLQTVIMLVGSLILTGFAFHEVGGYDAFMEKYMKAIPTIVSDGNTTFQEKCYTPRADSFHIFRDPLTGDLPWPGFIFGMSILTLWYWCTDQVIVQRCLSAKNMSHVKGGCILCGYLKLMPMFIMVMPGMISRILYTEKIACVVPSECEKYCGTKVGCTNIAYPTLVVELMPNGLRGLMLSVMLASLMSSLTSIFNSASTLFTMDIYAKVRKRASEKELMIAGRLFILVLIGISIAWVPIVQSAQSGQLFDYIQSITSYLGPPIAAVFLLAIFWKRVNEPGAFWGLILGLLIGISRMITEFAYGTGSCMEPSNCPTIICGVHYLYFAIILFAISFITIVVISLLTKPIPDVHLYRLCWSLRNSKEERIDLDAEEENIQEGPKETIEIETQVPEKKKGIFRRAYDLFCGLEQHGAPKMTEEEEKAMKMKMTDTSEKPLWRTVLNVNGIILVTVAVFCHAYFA

human SGLT2 = biological target: T2, human SGLT2 (Homo sapiens, UniProt P31639); conditions: SGLT2 transporter; read-out: Km values for uptake
T2 sequence (P31639 1-672): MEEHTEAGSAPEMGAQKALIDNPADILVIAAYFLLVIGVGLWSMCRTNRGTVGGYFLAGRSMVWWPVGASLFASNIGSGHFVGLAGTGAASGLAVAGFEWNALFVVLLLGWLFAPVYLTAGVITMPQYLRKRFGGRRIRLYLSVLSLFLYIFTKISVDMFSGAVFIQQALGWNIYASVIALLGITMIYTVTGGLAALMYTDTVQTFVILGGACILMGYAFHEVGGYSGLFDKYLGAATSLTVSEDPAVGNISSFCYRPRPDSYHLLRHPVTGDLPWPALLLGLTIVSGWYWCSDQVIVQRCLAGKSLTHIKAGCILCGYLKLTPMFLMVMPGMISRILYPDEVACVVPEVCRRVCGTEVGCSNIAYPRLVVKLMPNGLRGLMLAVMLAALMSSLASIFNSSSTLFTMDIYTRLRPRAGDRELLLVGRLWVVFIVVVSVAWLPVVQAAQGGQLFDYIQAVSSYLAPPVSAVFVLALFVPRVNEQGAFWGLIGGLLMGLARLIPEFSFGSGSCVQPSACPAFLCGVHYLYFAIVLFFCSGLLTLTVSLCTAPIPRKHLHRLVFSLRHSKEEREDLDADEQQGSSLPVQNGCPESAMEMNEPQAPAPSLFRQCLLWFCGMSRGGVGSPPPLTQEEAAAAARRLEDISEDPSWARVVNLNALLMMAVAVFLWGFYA

## CO[C@H]1O[C@H](CO)[C@@H](O)[C@H](O)[C@H]1O [AMG, α-methyl-D-glucopyranoside]
Human SGLT1
  Km: 400 µM
Human SGLT2
  Km: 1600 µM
